Test results: patent publication US20090075951A1, “Methods and Reagents for the Treatment of Inflammatory Disorders” (CombinatoRx, Inc., priority 2003, published 2009)
Values joined by “and” are separate entries in the source; they are usually repeats but may differ in a detail not shown here. Equal entries are not always repeated. Where two headings read alike, the source gives them in different places.

Experiments:
[1] = system: TNFα secretion from LPS stimulated white blood cells from human buffy coat; test: TNFα secretion assay, LPS stimulation; settings: for percent inhibition of TNFα secretion: LPS
Procedure: (§1) Various concentrations of each test compound were added at the time of stimulation. […] After the plate was washed with 0.1% Tween 20/PBS, an HRP-luminescent substrate was added to each well and light intensity measured using a LJL Analyst plate luminometer.

[2] = system: TNFα secretion from PMA/ionomycin stimulated white blood cells from human buffy coat; test: TNFα secretion assay, PMA/ionomycin stimulation; settings: for inhibition at 0.01 µM: read-out: TNFα PI percent inhibition, 0.01 μM
Procedure: as §1

[3] = system: cytokine secretion; test: Suppression of cytokine secretion in vitro by individual tricyclic compounds
Procedure: Individual tricyclic compounds were tested for their ability to suppress cytokine secretion in vitro.

[4] = Homo sapiens, read-out: TNFα LPS percent inhibition, […]
[5] = read-out: TNFα PI percent inhibition, […]
[6] = read-out: IL-1β LPS percent inhibition
[7] = read-out: IL-2 PI percent inhibition
[8] = Amoxapine μM: 32.00, 16.00, 8.00, 4.00, 2.00, 1.00, 0.50, 0.25, 0.13, 0.06, 0.03, 0.02
[9] = Clomipramine μM: 57.00, 28.50, 14.25, 7.13, 3.56, 1.78, 0.89, 0.45, 0.22, 0.11, 0.06, 0.03
[10] = Nortriptyline μM by row r6-r17: 67.00, 33.50, 16.75, 8.38, 4.19, 2.09, 1.05, 0.52, 0.26, 0.13, 0.07, 0.03
[11] = Protriptyline μM by row r6-r17: 67.00, 33.50, 16.75, 8.38, 4.19, 2.09, 1.05, 0.52, 0.26, 0.13, 0.07, 0.03

CN(C)CCC=C1c2ccccc2CCc2ccccc21 [Amitriptyline, amitriptyline]
inhibition at 0.03 µM ([1]; Homo sapiens, read-out: TNFα LPS percent inhibition, 0.03 μM): 0%
inhibition at 0.06 µM ([1]; Homo sapiens, read-out: TNFα LPS percent inhibition, 0.06 μM): 0%
inhibition at 0.5 µM ([1]; Homo sapiens, read-out: TNFα LPS percent inhibition, 0.50 μM): 0%
inhibition at 1 µM ([1]; Homo sapiens, read-out: TNFα LPS percent inhibition, 1.00 μM): 0%
inhibition at 2 µM ([1]; Homo sapiens, read-out: TNFα LPS percent inhibition, 2.00 μM): 0%
inhibition at 4 µM ([1]; Homo sapiens, read-out: TNFα LPS percent inhibition, 4.00 μM): 0%
inhibition at 8 µM ([1]; Homo sapiens, read-out: TNFα LPS percent inhibition, 8.00 μM): 0%
inhibition at 16 µM [1, 4]: 0%
inhibition at 32 µM [1, 4]: 18%
inhibition at 64 µM [1, 4]: 45%
inhibition at 0.03 µM ([2]; read-out: TNFα PI percent inhibition, 0.03 μM): 0%
inhibition at 0.06 µM ([2]; read-out: TNFα PI percent inhibition, 0.06 μM): 0%
inhibition at 0.5 µM ([2]; read-out: TNFα PI percent inhibition, 0.50 μM): 0%
inhibition at 1 µM ([2]; read-out: TNFα PI percent inhibition, 1.00 μM): 0%
inhibition at 2 µM ([2]; read-out: TNFα PI percent inhibition, 2.00 μM): 0%
inhibition at 4 µM ([2]; read-out: TNFα PI percent inhibition, 4.00 μM): 5%
inhibition at 8 µM ([2]; read-out: TNFα PI percent inhibition, 8.00 μM): 21%
inhibition at 16 µM [2, 5]: 35%
inhibition at 32 µM [2, 5]: 66%
inhibition at 64 µM [2, 5]: 81%
inhibition at 0.03 µM [3, 6]: 0%
inhibition at 0.06 µM [3, 6]: 0%
inhibition at 0.5 µM [3, 6]: 0%
inhibition at 1 µM [3, 6]: 0%
inhibition at 2 µM [3, 6]: 0%
inhibition at 4 µM [3, 6]: 11%
inhibition at 8 µM [3, 6]: 7%
inhibition at 16 µM [3, 6]: 0%
inhibition at 32 µM [3, 6]: 0%
inhibition at 64 µM [3, 6]: 0%
inhibition at 0.03 µM [3, 7]: 0%
inhibition at 0.06 µM [3, 7]: 2%
inhibition at 0.5 µM [3, 7]: 0%
inhibition at 1 µM [3, 7]: 0%
inhibition at 2 µM [3, 7]: 0%
inhibition at 4 µM [3, 7]: 4%
inhibition at 8 µM [3, 7]: 7%
inhibition at 16 µM [3, 7]: 33%
inhibition at 32 µM [3, 7]: 62%
inhibition at 64 µM [3, 7]: 82%

Clc1ccc2c(c1)C(N1CCNCC1)=Nc1ccccc1O2 [Amoxapine, amoxapine]
percent inhibition of TNFα secretion ([1]; Prednisolone 0.5 μM, Amoxapine μM r5-r13: 0,0.25,0.5,1,2,4,8,16,32): 68.1%
IL-1β LPS, percent inhibition relative to untreated controls [3, 8]: 5% and 0%
IL-2 PI, percent inhibition relative to untreated controls [3, 8]: 0%
TNFα LPS, percent inhibition relative to untreated controls [3, 8]: 0%
TNFα PI, percent inhibition relative to untreated controls [3, 8]: 4% and 0%

CN(C)CCCN1c2ccccc2CCc2ccc(Cl)cc21 [Clomipramine, clomipramine]
percent inhibition of TNFα secretion ([1]; Prednisolone 1 μM, Clomipramine μM r5-r13: 0,0.45,0.89,1.8,3.6,7.1,14,28,57): 69.3%
IL-1β LPS, percent inhibition relative to untreated controls [3, 9]: 3% and 0%
IL-2 PI, percent inhibition relative to untreated controls [3, 9]: 5% and 0%
TNFα LPS, percent inhibition relative to untreated controls [3, 9]: 0%
TNFα PI, percent inhibition relative to untreated controls [3, 9]: 0%

CN1CCN(C2=Nc3cc(F)ccc3Cc3ccccc32)CC1 [Fluperlapine, fluperlapine]
inhibition at 0.01 µM [2]: 0%
inhibition at 0.04 µM ([2]; read-out: TNFα PI percent inhibition, 0.04 μM): 0%
inhibition at 0.4 µM ([2]; read-out: TNFα PI percent inhibition, 0.40 μM): 0%
inhibition at 32 µM [2, 5]: 25%
inhibition at 0.01 µM [3, 7]: 6%
inhibition at 0.04 µM [3, 7]: 8%
inhibition at 0.4 µM [3, 7]: 7%
inhibition at 32 µM [3, 7]: 1%

Clc1ccc2c(c1)N=C(N1CCNCC1)c1ccccc1N2 [Norclozapine, norclozapine]
percent inhibition of TNFα secretion ([1]; Prednisolone 0 μM, Norclozapine μM r5-r13: 0,0.21,0.41,0.83,1.7,3.3,6.6,13,27): −17%

CNCCC=C1c2ccccc2CCc2ccccc21 [Nortriptyline, nortriptyline]
IL-1β LPS, percent inhibition relative to untreated controls [3, 10]: 3% and 0%
IL-2 PI, percent inhibition relative to untreated controls [3, 10]: 0%
TNFα LPS, percent inhibition relative to untreated controls [3, 10]: 1% and 0%
TNFα PI, percent inhibition relative to untreated controls [3, 10]: 2%

CNCCCC1c2ccccc2C=Cc2ccccc21 [Protriptyline, protriptyline]
IL-1β LPS, percent inhibition relative to untreated controls [3, 11]: 0%
IL-2 PI, percent inhibition relative to untreated controls [3, 11]: 0%
TNFα LPS, percent inhibition relative to untreated controls [3, 11]: 2% and 0%
TNFα PI, percent inhibition relative to untreated controls [3, 11]: 0%

OCCOCCN1CCN(C2=Nc3ccccc3Sc3ccccc32)CC1 [Quetiapine fumurate]
inhibition at 0.01 µM [2]: 7%
inhibition at 0.02 µM ([2]; read-out: TNFα PI percent inhibition, 0.02 μM): 0%
inhibition at 0.05 µM ([2]; read-out: TNFα PI percent inhibition, 0.05 μM): 0%
inhibition at 11 µM [2, 5]: 13%
inhibition at 0.01 µM [3, 7]: 0%
inhibition at 0.02 µM [3, 7]: 0%
inhibition at 0.05 µM [3, 7]: 0%
inhibition at 11 µM [3, 7]: 0%

C[C@]12C=CC(=O)C=C1CC[C@H]1[C@@H]3C[C@@H](O)[C@](O)(C(=O)CO)[C@@]3(C)C[C@H](O)[C@@]12F [Triamcinolone, triamcinolone]
inhibition at […] ([2]; read-out: inhibition of TNFα secretion, Triamcinolone 38 nM, Desipramine nM: 0, 50, 200, 799, 3197, 13000): 16%
inhibition at […] ([2]; read-out: inhibition of TNFα secretion, Triamcinolone 38 nM, Imipramine nM: 0, 99, 394, 1578, 6311, 25000): 16.1%
inhibition at […] ([2]; read-out: inhibition of TNFα secretion, Triamcinolone 38 nM, Nortriptyline nM: 0, 52, 208, 834, 3336, 13000): 7.21%
inhibition at 2.434 µM ([2]; read-out: inhibition of TNFα secretion, Triamcinolone 2434 nM, Desipramine nM: 0, 50, 200, 799, 3197, 13000): 47.1%
inhibition at 2.434 µM ([2]; read-out: inhibition of TNFα secretion, Triamcinolone 2434 nM, Imipramine nM: 0, 99, 394, 1578, 6311, 25000): 47.2%
inhibition at 2.434 µM ([2]; read-out: inhibition of TNFα secretion, Triamcinolone 2434 nM, Nortriptyline nM: 0, 52, 208, 834, 3336, 13000): 33.7%
inhibition at 2.434 µM ([2]; read-out: inhibition of TNFα secretion, Triamcinolone 2434 nM, Protriptyline nM: 0, 52, 208, 834, 3336, 13000): 48.5%
inhibition at […] ([2]; read-out: percent inhibition of TNFα secretion, Triamcinolone 38 nM, Amitriptyline nM: 0, 50, 199, 796, 3186, 13000): 10.8%
inhibition at […] ([2]; read-out: percent inhibition of TNFα secretion, Triamcinolone 38 nM, Amoxapine nM: 0, 12, 50, 199, 797, 3187): 3.52%
inhibition at […] ([2]; read-out: percent inhibition of TNFα secretion, Triamcinolone 38 nM, Clomipramine nM: 0, 45, 178, 712, 2848, 11000): 12.5%
inhibition at 2.434 µM ([2]; read-out: percent inhibition of TNFα secretion, Triamcinolone 2434 nM, Amitriptyline nM: 0, 50, 199, 796, 3186, 13000): 43.8%
inhibition at 2.434 µM ([2]; read-out: percent inhibition of TNFα secretion, Triamcinolone 2434 nM, Amoxapine nM: 0, 12, 50, 199, 797, 3187): 36.1%
inhibition at 2.434 µM ([2]; read-out: percent inhibition of TNFα secretion, Triamcinolone 2434 nM, Clomipramine nM: 0, 45, 178, 712, 2848, 11000): 46.9%
